This experiment addresses T1, CXCR4 (Homo sapiens, UniProt P61073).
T1 construct: CCRF-CEM cells, a human T-cell ALL line that endogenously expresses CXCR4; endogenous in cells; host or cells: CCRF-CEM (human T-cell acute lymphoblastic leukemia line)
Kind of experiment: Calcium flux assay, agonist mode, Flexstation (CCRF-CEM cells). The note with it: CCRF-CEM, percent of maximum response compared with SDF-1α, read-out: % Intrinsic Activity. In kind it is cell-based. The source says:
Calcium Flux Assay is one of the most popular cell-based GPCR functional assays. It most often uses calcium sensing fluorescent dyes such as fura2 AM, fluo-4 and Calcium-4 to measure changes in intracellular calcium concentration. It is used mainly to detect GPCR signaling via Gαq subunit. Activation of these Gq-coupled GPCRs leads to activation of phospholipase C, which subsequently leads to increase in inositol phosphate production. IP3 receptors on endoplasmic reticulum sense the change then release calcium into cytoplasm. Intracellular calcium binding to the fluorescent dyes can be detected by instruments that quantify fluorescent intensities, such as FLIPR Tetra, Flexstation (MDS) and FDSS (Hamamatsu). In addition, to assess Gq-couple receptor signaling, a calcium flux assay can also be used to study Gs and Gi couple receptors by co-expressing CNG (cyclic nucleotide gated calcium channel) or chimeric G-proteins (Gqi5, Gsi5 for example). Activation of some Gi-coupled receptors can also be detected by calcium flux assay via Gβγ mediated phospholipase C activation.
The calcium flux assay was used to assess the test compounds' ability to activate the CXCR4 receptor in CCRF-CEM cells (human T lymphoblasts from acute lymphoblastic leukemia). […] After dye loading by incubating with Calcium-4 dye at 37° C. for 1 hour, cell plates were read at 37° C. using the using the Flexstation 3 workstation. Receptor activation was assessed by measuring changes in fluorescent intensity after the addition of the test compounds or the reference agonist SDF-1α on the using the Flexstation 3 workstation. EC50
and percent intrinsic actively were derived from the data collected. Intrinsic activity refers to the efficacy of the test compound and is calculated as the percent of maximum response compared with the response of the reference standard (i.e., natural agonist, SDF-1α).
Background: Calcium assays in cells follow changes in intracellular calcium, usually with a dye or a luminescent sensor.

SMILES strings stand for the structures. Where a SMILES comes first, the peptide text is derived from it. [ ]: non-standard residue; d: D form. The star is where a group is joined. Palmitoyl = CCCCCCCCCCCCCCCC(=O)*; Hyp = O=C(O)[C@@H]1C[C@@H](O)CN1

T1 sequence (P61073 whole entry): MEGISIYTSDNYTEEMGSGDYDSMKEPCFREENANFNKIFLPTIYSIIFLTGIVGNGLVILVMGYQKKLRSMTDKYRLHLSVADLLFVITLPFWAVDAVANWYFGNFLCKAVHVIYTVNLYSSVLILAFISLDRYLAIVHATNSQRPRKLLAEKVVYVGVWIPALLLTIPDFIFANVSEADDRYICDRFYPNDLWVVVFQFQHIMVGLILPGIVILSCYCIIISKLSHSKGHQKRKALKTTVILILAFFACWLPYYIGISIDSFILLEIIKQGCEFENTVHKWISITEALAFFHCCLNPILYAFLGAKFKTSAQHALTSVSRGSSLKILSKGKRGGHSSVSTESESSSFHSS

As to `CCCCCCCCCCCCCCCC(=O)NCC(=O)NCC(=O)N[C@@H](Cc1ccc(O)cc1)C(=O)N[C@@H](CCC(N)=O)C(=O)N[C@@H](CCCCN)C(=O)N[C@@H](CCCCN)C(=O)N[C@@H](CC(C)C)C(=O)N[C@@H](CCCNC(=N)N)C(=O)N1CCC[C@@H]1C(=O)N1CCC[C@@H]1C(=O)N[C@@H](Cc1c[nH]cn1)C(=O)N[C@H](C(=O)N[C@@H](CC(=O)O)C(=O)N[C@@H](CCCCN)C(=O)N[C@@H](Cc1ccc(O)cc1)C(=O)N[C@@H](CCCNC(=N)N)C(=O)N[C@@H](CC(C)C)C(N)=O)[C@@H](C)O` [Compound 32] (Palmitoyl-GGYQKKLR[dP][dP]HTDKYRL-NH2; C-terminus assumed), the Emax is 91.1%.

As to `CCCCCCCCCCCCCCCC(=O)NCC(=O)NCC(=O)N[C@@H](Cc1ccc(O)cc1)C(=O)N[C@@H](CCC(N)=O)C(=O)N[C@@H](CCCCN)C(=O)N[C@@H](CCCCN)C(=O)N[C@@H](CC(C)C)C(=O)N[C@@H](CCCNC(=N)N)C(=O)N1CCC[C@@H]1C(=O)N1C[C@H](O)C[C@H]1C(=O)N[C@H](C(=O)N[C@@H](CC(=O)O)C(=O)N[C@@H](CCCCN)C(=O)N[C@@H](Cc1ccc(O)cc1)C(=O)N[C@@H](CCCNC(=N)N)C(=O)N[C@@H](CC(C)C)C(N)=O)[C@@H](C)O` [Compound 36] (Palmitoyl-GGYQKKLR[dP][Hyp]TDKYRL-NH2; C-terminus assumed), the Emax stood at 55.2%. The same measure for `CCCCCCCCCCCCCCCC(=O)NCC(=O)NCC(=O)N[C@@H](Cc1ccc(O)cc1)C(=O)N[C@@H](CCC(N)=O)C(=O)N[C@@H](CCCCN)C(=O)N[C@@H](CCCCN)C(=O)N[C@@H](CC(C)C)C(=O)N[C@@H](CCCNC(=N)N)C(=O)N1CCC[C@@H]1C(=O)N[C@@H](C)C(=O)N[C@H](C(=O)N[C@@H](CC(=O)O)C(=O)N[C@@H](CCCCN)C(=O)N[C@@H](Cc1ccccc1)C(=O)N[C@@H](CCCNC(=N)N)C(=O)N[C@@H](CC(C)C)C(N)=O)[C@@H](C)O` [Compound 29] (Palmitoyl-GGYQKKLR[dP]ATDKFRL-NH2; C-terminus assumed): 88.9%; for `CCCCCCCCCCCCCCCC(=O)N[C@@H](CCSC)C(=O)NCC(=O)N[C@@H](Cc1ccc(O)cc1)C(=O)N[C@@H](CCC(N)=O)C(=O)N[C@@H](CCCCN)C(=O)N[C@@H](CCCCN)C(=O)N[C@@H](CC(C)C)C(=O)N[C@@H](CCCNC(=N)N)C(=O)N[C@@H](CO)C(=O)N[C@@H](CCSC)C(=O)N[C@H](C(=O)N[C@@H](CC(=O)O)C(=O)N[C@@H](CCCCN)C(=O)N[C@@H](Cc1ccc(O)cc1)C(=O)N[C@@H](CCCNC(=N)N)C(=O)N[C@H](C(N)=O)C(C)C)[C@@H](C)O` [Compound 11] (Palmitoyl-MGYQKKLRSMTDKYRV-NH2; C-terminus assumed): 61.7%. The result for `CCCCCCCCCCCCCCCC(=O)NCC(=O)NCC(=O)N[C@@H](Cc1ccc(O)cc1)C(=O)N[C@@H](CCC(N)=O)C(=O)N[C@@H](CCCCN)C(=O)N[C@@H](CCCCN)C(=O)N[C@@H](CC(C)C)C(=O)N[C@@H](CCCNC(=N)N)C(=O)N1CCC[C@@H]1C(=O)N[C@@H](Cc1c[nH]c2ccccc12)C(=O)N[C@H](C(=O)N[C@@H](CC(=O)O)C(=O)N[C@@H](CCCCN)C(=O)N[C@@H](Cc1ccc(O)cc1)C(=O)N[C@@H](CCCNC(=N)N)C(=O)N[C@@H](CC(C)C)C(N)=O)[C@@H](C)O` [Compound 33] (Palmitoyl-GGYQKKLR[dP]WTDKYRL-NH2; C-terminus assumed) reads 93%; that for `CCCCCCCCCCCCCCCC(=O)NCC(=O)NCC(=O)N[C@@H](Cc1ccc(O)cc1)C(=O)N[C@@H](CCC(N)=O)C(=O)N[C@@H](CCCCN)C(=O)N[C@@H](CCCCN)C(=O)N[C@@H](CC(C)C)C(=O)N[C@@H](CCCNC(=N)N)C(=O)N1C[C@H](O)C[C@H]1C(=O)N[C@@H](Cc1c[nH]cn1)C(=O)N[C@H](C(=O)N[C@@H](CC(=O)O)C(=O)N[C@@H](CCCCN)C(=O)N[C@@H](Cc1ccc(O)cc1)C(=O)N[C@@H](CCCNC(=N)N)C(=O)N[C@@H](CC(C)C)C(N)=O)[C@@H](C)O` [Compound 35] (Palmitoyl-GGYQKKLR[Hyp]HTDKYRL-NH2; C-terminus assumed), 89.4%.

The record behind these values is US9155795B2, “CXCR4 receptor compounds” (Anchor Therapeutics, Inc., priority 2010, dated 2015).
